“Also recorded” adds a separate entry of the source. Read-outs that look alike come from different tables or passages of the source.
What was measured:
Assay type in all cases: cell-based
[1] = biological target: T1, PDK1 (phosphoinositide-dependent kinase 1) (Homo sapiens, UniProt O15530); test: PDK1 phosphorylation (pPDK1) by flow cytometry in SU-DHL-8 cells; conditions: SU-DHL-8, 24 hours, vs control group, FIG. 3
T1 construct: endogenous in cells; host or cells: SU-DHL-8 (ATCC CRL-2961)
T1 sequence (O15530 1-556): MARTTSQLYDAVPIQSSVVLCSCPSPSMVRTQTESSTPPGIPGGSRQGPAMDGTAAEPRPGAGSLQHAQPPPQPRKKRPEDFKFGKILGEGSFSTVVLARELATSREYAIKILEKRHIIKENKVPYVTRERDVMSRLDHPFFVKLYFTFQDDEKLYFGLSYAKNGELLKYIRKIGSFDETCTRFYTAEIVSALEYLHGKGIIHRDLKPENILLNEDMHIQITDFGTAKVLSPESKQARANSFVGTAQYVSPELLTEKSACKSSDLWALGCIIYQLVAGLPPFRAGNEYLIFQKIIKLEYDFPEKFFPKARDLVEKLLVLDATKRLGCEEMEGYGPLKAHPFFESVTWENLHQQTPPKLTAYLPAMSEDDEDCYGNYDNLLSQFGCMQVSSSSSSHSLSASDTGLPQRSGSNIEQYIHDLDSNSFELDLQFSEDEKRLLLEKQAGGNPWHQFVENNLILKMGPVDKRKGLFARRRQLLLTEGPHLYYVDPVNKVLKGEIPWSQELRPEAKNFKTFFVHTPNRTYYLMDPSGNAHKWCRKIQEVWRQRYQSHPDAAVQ
Experimental: After stabilizing the cells, the compound of the present invention was added, and the cells were cultured for 24 hours.
After drug treatment, the cells were harvested, and the Fc receptor blocking process was performed. The cells were then fixed and permeabilized using the Intracellular Staining Kit (Cat. No. BD554715) from BD Biosciences. Subsequently, the intracellular pPDK1 was stained using the pPDK1-PE fluorescently labeled antibody (BD Biosciences).
Referring to the figure, the vertical axis represents the phosphorylation level of PDK1 (phospho-PDK1 expression level), and the horizontal axis denotes the concentration-dependent treatment conditions of each compound.

[2] = test system: T cells isolated from mouse spleens; test: T cell proliferation inhibition (CFSE flow cytometry, anti-CD3/anti-CD28 stimulation); conditions: mouse spleen T cells, 3 days; for inhibition at 0.01 µM / inhibition at 0.1 µM / inhibition at 1 µM / inhibition at 10 µM / inhibition at 30 µM / inhibition at 50 µM: Mus musculus, T-cell, 72 h, read-out: Proliferation inhibition rate (%)
Method in brief: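 Proliferation inhibition (%) came from flow cytometry of CFSE dilution after 3 days' culture at 37 °C with compound (10 nM, 100 nM, 1, 10, 30, 50 μM; triplicate wells). Cells were magnetically purified T cells from C57BL/6 mouse spleens, 2×10^5 per well, stimulated with 0.5 μg/mL each anti-CD3 and anti-CD28.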

[3] = test system: Human B Lymphocyte cell line, SU-DHL-8; test: Relative cell viability CCK-8, SU-DHL-8
Method in brief: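 Cells grown in RPMI-1640 with 10% FBS, treated with compound at several concentrations, then given CCK-8 for 4 h at 37° C. Viability expressed as percent of DMSO-treated cells.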

[4] = test system: Human Bladder cancer cell, T24; test: Relative cell viability CCK-8, T24; conditions: for Relative cell viability (%), T24: 48 hours
Experimental: (§1) Human-derived breast cancer cell line MCF-7, human-derived lung cancer cell line A549, human-derived colorectal cancer cell line HCT-116, human pancreatic cancer cell line AsPC-1, glioblastoma cell line A172, and melanoma cell line Malme-3M were obtained from the Korean Cell Bank. gastric cancer cell line SNU-719, and bladder cancer cell line T24 were cultured in RPMI-1640 medium containing 10% FBS.
(§2) Following stabilization, the cells were harvested using Trypsin-EDTA treatment, centrifuged at 1,200 rpm for 3 minutes, the supernatant was removed, and the cells were resuspended in the same medium. They were then seeded into a 96-well plate (Costar 96-well cell culture plate, Corning) at 100 μL per well, and the conditions were adjusted as indicated in Table 5.
(§3) The cells were cultured in a 5% CO2 incubator at 37° C. for 24 hours, and after stabilization of the cells, each plate was washed with 200 μL of PBS per well and treated with 50 μL of culture medium per well.
(§4) After that, 10 μL of CCK-8 was added to each well, and the plate was incubated again at 37° C. in a 5% CO2 incubator for 2 hours.
(§5) In other words, when the survival rate of untreated cells (DMSO) is set at 100%, the relative cell survival rate in each group treated with the drug at different concentrations is indicated.

[5] = test system: Human Colorectal Carcinoma cell line, HCT-116; test: Relative cell viability CCK-8, HCT-116; conditions: 48 hours; for viability at 1 µM / viability at 10 µM / viability at 30 µM / viability at 50 µM: Homo sapiens, HCT-116
Experimental: as §1, §2, §3, §4, §5

[6] = Homo sapiens, SU-DHL-8, 48 h, read-out: Relative cell viability (%), SU-DHL-8, 1 μM, 48 hours, untreated (DMSO) = 100%
[7] = Homo sapiens, SU-DHL-8, 48 h, read-out: Relative cell viability (%), SU-DHL-8, 10 μM, 48 hours, untreated (DMSO) = 100%
[8] = 30 μM, 48 hours, untreated (DMSO) = 100%
[9] = 50 μM, 48 hours, untreated (DMSO) = 100%

Compound	inhibition at 0.01 µM ([2]; compound 10 nM)	inhibition at 0.1 µM ([2]; compound 100 nM)	inhibition at 1 µM ([2]; compound 1 μM)	inhibition at 10 µM ([2]; compound 10 μM)	inhibition at 30 µM ([2]; compound 30 μM)	inhibition at 50 µM ([2]; compound 50 μM)	viability at 1 µM [3, 6]	viability at 10 µM [3, 7]	Relative cell viability (%), SU-DHL-8 ([3]; human, 48 h, 30 µM)	Relative cell viability (%), SU-DHL-8 ([3]; human, 48 h, 50 µM)	Proliferation inhibition rate (%) ([2]; compound 10 nM)	Proliferation inhibition rate (%) ([2]; compound 100 nM)	Proliferation inhibition rate (%) ([2]; compound 1 μM)	Relative cell viability (%), SU-DHL-8 [3, 8]	Relative cell viability (%), SU-DHL-8 [3, 9]	viability at 1 µM ([5]; 1 μM)	viability at 10 µM ([5]; 10 μM)	viability at 30 µM ([5]; 30 μM)	viability at 50 µM ([5]; 50 μM)	further results
Nc1ncccc1C(=O)NCCCCCCCCCCCCN1CCOCC1 [Compound 2, 2-Amino-N-(12-morpholin-4-yl-dodecyl)-nicotinamide]	-1.47%	0%	0%	100%	100%	100%	31%	26%	–	–	–	–	–	–	–	–	–	–	–	Inhibition of PDK1 phosphorylation (phospho-PDK1 expression level) ([1]; listed as GO48): stronger PDK1 inhibition; also recorded: high inhibitory effects even at low concentrations; viability at 30 µM ([3]; Homo sapiens, SU-DHL-8, 48 h, read-out: Relative cell viability (%), SU-DHL-8, 30 μM, 48 hours, untreated (DMSO) = 100%): 25.3%; viability at 50 µM ([3]; Homo sapiens, SU-DHL-8, 48 h, read-out: Relative cell viability (%), SU-DHL-8, 50 μM, 48 hours, untreated (DMSO) = 100%): 24.7%
Nc1ncccc1C(=O)NCCCCCCCCCCCCN1CCNCC1 [Compound 5, 2-Amino-N-(12-(piperazin-1-yl)dodecyl)-nicotinamide]	–	100%	100%	100%	100%	100%	8.8%	5.87%	4.63%	3.67%	–	–	–	–	–	–	–	–	–	Proliferation inhibition rate (%) ([2]; compound 10 nM, listed as GO78, 0.01 µM): −27.49%; Relative cell viability (%), T24 ([4]; 1 μM, listed as GO78, 1 µM): 28.34%; Relative cell viability (%), T24 ([4]; 10 μM, listed as GO78, 10 µM): 30.42%; Relative cell viability (%), T24 ([4]; 30 μM, listed as GO78, 30 µM): 29.73%; Relative cell viability (%), T24 ([4]; 50 μM, listed as GO78, 50 µM): 29.32%
CC1(C)CN(CCCCCCCCCCCCC(=O)Nc2nc(N)c3[nH]cnc3n2)CCO1 [Compound 11, 12-[4-(2,2-dimethylmorpholin-4-yl)]dodecyl-N-(6-aminopurine-2-yl) carboxamide]	–	–	–	–	–	–	–	–	–	–	−25.47%	100.00%	100.00%	4.82%	3.29%	–	–	–	–	Inhibition of PDK1 phosphorylation (phospho-PDK1 expression level) ([1]; listed as GO86): stronger PDK1 inhibition; also recorded: high inhibitory effects even at low concentrations; Proliferation inhibition rate (%) ([2]; compound 10 μM): 100.00%; Proliferation inhibition rate (%) ([2]; compound 30 μM): 100.00%; Proliferation inhibition rate (%) ([2]; compound 50 μM): 100.00%; Relative cell viability (%), SU-DHL-8 ([3]; 1 μM, 48 hours, untreated (DMSO) = 100%): 7.63%; Relative cell viability (%), SU-DHL-8 ([3]; 10 μM, 48 hours, untreated (DMSO) = 100%): 6.09%; Relative cell viability (%), HCT-116 ([5]; 1 μM): 21.36%; Relative cell viability (%), HCT-116 ([5]; 10 μM): 24.91%; Relative cell viability (%), HCT-116 ([5]; 30 μM): 24.78%; Relative cell viability (%), HCT-116 ([5]; 50 μM): 25.26%; Relative cell viability (%), T24 ([4]; 1 μM): 28.15%; Relative cell viability (%), T24 ([4]; 10 μM): 31.17%; Relative cell viability (%), T24 ([4]; 30 μM): 30.42%; Relative cell viability (%), T24 ([4]; 50 μM): 29.34%
Nc1ncccc1C(=O)NCCCCCCCCCCCCN1CCNCC1 [Compound 14, 2-Amino-N-(12-(piperazin-1-yl)dodecyl)nicotinamide]	–	–	–	–	–	–	–	–	1.16%	0.32%	–	–	–	–	–	14.2%	12.3%	9.38%	7.61%	Inhibition of PDK1 phosphorylation (phospho-PDK1 expression level) ([1]; listed as GO88): stronger PDK1 inhibition; also recorded: high inhibitory effects even at low concentrations; Proliferation inhibition rate (%) ([2]; compound 10 nM, listed as GO88, 0.01 µM): 17.83%; Proliferation inhibition rate (%) ([2]; compound 10 μM, listed as GO88, 10 µM): 85.09%; Proliferation inhibition rate (%) ([2]; compound 30 μM, listed as GO88, 30 µM): 98.95%; Relative cell viability (%), SU-DHL-8 ([3]; human, 48 h, 1 µM): 9.28%; Relative cell viability (%), SU-DHL-8 ([3]; human, 48 h, 10 µM): 3.31%; Relative cell viability (%), T24 ([4]; 1 μM, listed as GO88, 1 µM): 9.88%; Relative cell viability (%), T24 ([4]; 10 μM, listed as GO88, 10 µM): 11.01%; Relative cell viability (%), T24 ([4]; 30 μM, listed as GO88, 30 µM): 9.22%; Relative cell viability (%), T24 ([4]; 50 μM, listed as GO88, 50 µM): 7.47%
Nc1nc(NC(=O)CCCCCCCCCCCCN2CCN(CCO)CC2)nc2nc[nH]c12 [Compound 15, 12-[4-(2-hydroxyethyl)piperazin-1-yl]dodecyl-N-(6-aminopurine-2-yl) carboxamide]	-0.4%	100%	100%	100%	100%	100%	–	–	–	–	–	–	–	–	–	12.1%	11.5%	10%	9.08%	viability at 1 µM ([4]; Homo sapiens, 48 h, 1 μM): 7.92%; viability at 10 µM ([4]; Homo sapiens, 48 h, 10 μM): 9.29%; viability at 30 µM ([4]; Homo sapiens, 48 h, 30 μM): 9.57%; viability at 50 µM ([4]; Homo sapiens, 48 h, 50 μM): 8.75%
Nc1ncccc1C(=O)NCCCCCCCCCCCCF [Compound 57, 2-Amino-N-(12-fluoro-dodecyl)-nicotinamide]	–	–	–	–	100%	100%	–	–	–	–	−9.32%	−5.28%	16.20%	15.63%	11.94%	–	–	–	–	Inhibition of PDK1 phosphorylation (phospho-PDK1 expression level) [1]: exhibited an inhibitory effect on PDK1 phosphorylation; viability at 1 µM ([3]; Homo sapiens, SU-DHL-8, 48 h, 1 μM, 48 hours, untreated (DMSO) = 100%, read-out: Relative cell viability (%), SU-DHL-8): 19%; viability at 10 µM ([3]; Homo sapiens, SU-DHL-8, 48 h, 10 μM, 48 hours, untreated (DMSO) = 100%, read-out: Relative cell viability (%), SU-DHL-8): 18.8%

— patent publication US20260183274A1, “PDK1 REGULATORY COMPOUND AND COMPOSITION CONTAINING THE SAME” (PROVIBIO CO., LTD., priority 2024, published 2026)
